According to patent US8679461B2, “Use of hesperetin for enhancing the sweet taste” (Symrise AG, priority 2005, dated 2014):
“And” between values parts separate entries of the source, which are not always exact repeats. Equal entries are not always repeated.

How the values were obtained:
[1] = system: sweet impression of a 5% by weight sucrose-containing solution; experiment: Enhancing the sweet impression of a sugar solution, rating by a group of experts (Application Example 1); format: in vivo; conditions: for total number of tasters against the number of tasters who found the test solution sweeter / % Enhancement of the sweet impression: 5% sucrose + 100 ppm substance against 5% sucrose solution; for % Enhancement of the sweet impression: calculated from mean ratings; for Sweet impression (1-10) b) with: 5% sucrose + 100 ppm substance, rating 0 [not sweet] to 10 [extremely sweet], mean ± standard deviation
Method: In order to quantify the enhancement of a sweet impression owing to the addition of hesperetin, the respective sweetness of a 5% by weight sucrose-containing solution and of samples which contained 5% sucrose and 100 ppm hesperetin (source: Sigma-Aldrich, Order.-No. H 4125, CA-No. 41001-90-5) or a quantity of comparative hydroxyflavanones naringenin, eriodictyol, homoeriodictyol or eriodictyol-7-methylether (cf. US 2002 188,019) was determined by a group of experts (rating0 [not sweet] to 10 [extremely sweet]). Evaluation took place as a calculation of the enhancement (in %) of the sweet impression from the mean values of the assessments of the sucrose solution or the sucrose and compound 2-containing solution.

sweet taste = conditions: concentration of 200 ppm; cited from earlier work
[2] = system: sweet impression of sucrose-containing solutions; experiment: Sweet impression of a sugar-reduced test solution, rating by a group of experts (Application Example 2); format: in vivo
Method: In order to quantify the retention of a sweet impression when replacing a sucrose content with a small quantity of hesperetin, the respective sweetness of (a) a 6% by weight sucrose-containing solution against a 5% by weight sucrose-containing solution and (b) a 6% by weight sucrose-containing solution against a solution which contained 5% sucrose and a quantity of hesperetin (source: Sigma-Aldrich, Order No. H 4125, CA-No. 41001-90-5) was determined by a group of experts (rating 0 [not sweet] to 10 [extremely sweet]). Evaluation took place as a calculation of the enhancement (in %) of the sweet impression from the mean values of the assessments of the 6% or 5% sucrose-containing solution or 5% sucrose and 100 ppm hesperetin-containing solution.

Row | SMILES | total number of tasters against the number of tasters who found the test solution sweeter [1] | % Enhancement of the sweet impression [1] | Sweet impression (1-10) b) with [1] | other results
1 | COc1cc(O)c2c(c1)OC(c1ccc(O)c(O)c1)CC2=O (stereo not drawn) [Eriodictyol-7-methylether] | 18/13 | +15.9% | 5.7 ± 1.9 | –
2 | COc1cc([C@@H]2CC(=O)c3c(O)cc(O)cc3O2)ccc1O [Homoeriodictyol] | 19/13 | +6.4% | 6.1 ± 1.5 | –
3 | O=C1C[C@@H](c2ccc(O)cc2)Oc2cc(O)cc(O)c21 [Naringenin] | 19/12 | +7.5% | 6.0 ± 1.7 | –
4 | COc1ccc(C2CC(=O)c3c(O)cc(O)cc3O2)cc1O (stereo not drawn) [Hesperetin, 4′-methoxy-3′,5,7-trihydroxyflavanone] | 16/14 | +41% | 7.1 ± 2.4 | sweet-enhancing effect (in words) ([1]; in contrast to naringenin, homoeriodictyol, eriodictyol and eriodictyol-7-methylether, cf. Example 1): clear and significant sweet-enhancing effect; inherent taste (in words) (sweet taste): very weak sweet taste; total number of tasters against the number of tasters who found the test solution sweeter ([2]; test (b): 5% sucrose + 100 ppm hesperetin against 6% sucrose): 15/12; % Enhancement of the sweet impression ([2]; test (b): 5% sucrose + 100 ppm hesperetin against 6% sucrose solution): +21%; Sweet impression (1-10) 5% sucrose + 100 ppm hesperetin ([2]; test (b), mean ± standard deviation): 7.9 ± 1.5
5 | O=C1C[C@@H](c2ccc(O)c(O)c2)Oc2cc(O)cc(O)c21 [Eriodictyol] | 12/2 | −16.7% | 5.4 ± 1.2 | –
6 | OC[C@H]1O[C@@](CO)(O[C@H]2O[C@H](CO)[C@@H](O)[C@H](O)[C@H]2O)[C@@H](O)[C@@H]1O [sucrose] | – | – | – | Sweet impression (1-10) 5% sucrose ([2]; 5% by weight sucrose solution, test (a), mean ± standard deviation): 5.0 ± 1.6; Sweet impression (1-10) 6% sucrose ([2]; 6% by weight sucrose solution, reference in tests (a) and (b), mean ± standard deviation): 6.5 ± 1.5 and 6.9 ± 1.6; total number of tasters against the number of tasters who found the test solution sweeter ([2]; test (a): 5% sucrose against 6% sucrose): 15/0; % Enhancement of the sweet impression ([2]; test (a): 5% sucrose solution against 6% sucrose solution): −30%
